Measurements from patent US10828305B2 (SHANGHAI PHARMACEUTICALS HOLDING CO., LTD., priority 2016, dated 2020).
Like-named read-outs stand apart in the source and are kept apart here.

What was measured:
[1] = system: human gastric cancer NCI-N87 xenograft; test: HER2 overexpressing human gastric cancer NCI-N87 xenograft model in nude mice; format: in vivo, Balb/c nude mice; details: oral, 22 days
CYP2C19 = target: T1, CYP2C19 (Homo sapiens, UniProt P33261); test: Direct inhibition of CYP2C19, human liver microsome; format: in vitro ADME; details: probe mephenytoin, read-out: IC50 2C19 (Mephenytoin)
T1 construct: from tissue; host or cells: human liver microsomes
T1 sequence (P33261 whole entry): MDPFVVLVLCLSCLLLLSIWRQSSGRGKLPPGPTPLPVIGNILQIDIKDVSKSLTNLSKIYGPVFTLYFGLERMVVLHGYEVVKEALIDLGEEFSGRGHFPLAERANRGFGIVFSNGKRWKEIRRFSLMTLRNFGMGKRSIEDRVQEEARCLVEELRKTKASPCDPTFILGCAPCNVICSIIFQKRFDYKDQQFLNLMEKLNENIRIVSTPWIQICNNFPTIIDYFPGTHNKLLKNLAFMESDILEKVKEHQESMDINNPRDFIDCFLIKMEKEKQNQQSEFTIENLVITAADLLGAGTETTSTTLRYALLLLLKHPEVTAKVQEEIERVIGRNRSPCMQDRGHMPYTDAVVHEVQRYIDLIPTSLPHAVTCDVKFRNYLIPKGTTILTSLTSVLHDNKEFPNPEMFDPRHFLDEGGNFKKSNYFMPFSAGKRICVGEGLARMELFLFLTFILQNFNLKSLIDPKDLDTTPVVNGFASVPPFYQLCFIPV
Description: (§1) Research on Direct Inhibition of CYP3A4, CYP2D6, CYP2C9, CYP2C19, CYP1A2
(§2) 100 μL human liver microsome (with final concentration of 0.2 mg/mL) was used for direct inhibition under warm incubation, the positive control system contained NADPH (with final concentration of 1 mmol/L), a mixture of positive inhibitors (ketoconazole 0.01 to 10 μmol/L, quinidine 0.01 to 10 μmol/L, sulfaphenazole 0.1 to 100 μmol/L, tranylcypromine 1 to 1000 μmot/L, α-naphthoflavone 0.01 to 10 μmol/L), and a substrate mixture (with final concentration of midazolam 10 μmol/L, testosterone 100 μmol/L, dextromethorphan 10 μmol/L, diclofenac 20 μmol/L, S-mephenytoin 50 μmol/L, phenacetin 100 μmol/L), and the reaction was terminated after incubation for 20 min. The positive inhibitor was replaced with 0.1 to 100 μmol/L test compound in the test compound group. The reaction was terminated with acetonitrile containing 0.11 μg/mL internal standard tinidazole (1:3), vortexed for 10 min, centrifuged at 6000×g for 10 min, 50 μL supernatant was taken and put into a 96-well plate for injection.
(§3) In this experiment, IC50 of inhibition of the compound on the enzyme was calculated by measuring relative production of the probe metabolite. The activity of CYP3A4 was simultaneously characterized by two probes of midazolam and testosterone.

[2] = In vivo pharmacokinetics study in rats; details: male, SD, rat, plasma, po, iv 3 mg/kg, intragastric 6 mg/kg, read-out: Absolute bioavailability F
Description: In Vivo Pharmacokinetics Study in Rats and Mice
5 male SD rats, with weight of 180 to 220 g. The rats were fasted for 12 to 16 hours before the experiment, without restricting drinking water. Two rats were intravenously administrated with dosing solution (3 mL/kg, 1 mg/mL) at a dose of 3 mg/kg, 0.4 mL blood sample was taken from venous plexus of the fundus of the eye into a pre-heparinized centrifuge tube (sodium heparin solution 10 μL/tube) before administration and 2, 5, 15, 30, 60, 90, 120, 240, 360, 480, 720, 1440 min after administration, respectively. Three rats were intragastricly administrated with dosing suspension (8 mL/kg, 0.75 mg/mL) at a dose of 6 mg/kg, 0.4 mL blood sample was taken from venous plexus of the fundus of the eye into a pre-heparinized centrifuge tube (sodium heparin solution 10 μL/tube) before administration and 5, 15, 30, 60, 90, 120, 240, 360, 480, 720, and 1440 min after administration, respectively. […]
Taking 50 μL plasma sample of rat or mouse, adding […] acetonitrile containing internal standard (propranolol, 2.5 ng/ml) to precipitate protein. Vortexing for 10 min, centrifuging at 6000 g for 10 min, the supernatant was taken and diluted with mobile phase in a 96-well plate, the drug concentration in plasma was measured by UPLC/MS-MS. […]

CYP2D6 = target: T2, CYP2D6 (Homo sapiens, UniProt P10635); test: Direct inhibition of CYP2D6, human liver microsome; format: in vitro ADME; details: probe dextromethorphan, read-out: IC50 2D6 (Dextromethorphan)
T2 construct: from tissue; host or cells: human liver microsomes
T2 sequence (P10635 whole entry): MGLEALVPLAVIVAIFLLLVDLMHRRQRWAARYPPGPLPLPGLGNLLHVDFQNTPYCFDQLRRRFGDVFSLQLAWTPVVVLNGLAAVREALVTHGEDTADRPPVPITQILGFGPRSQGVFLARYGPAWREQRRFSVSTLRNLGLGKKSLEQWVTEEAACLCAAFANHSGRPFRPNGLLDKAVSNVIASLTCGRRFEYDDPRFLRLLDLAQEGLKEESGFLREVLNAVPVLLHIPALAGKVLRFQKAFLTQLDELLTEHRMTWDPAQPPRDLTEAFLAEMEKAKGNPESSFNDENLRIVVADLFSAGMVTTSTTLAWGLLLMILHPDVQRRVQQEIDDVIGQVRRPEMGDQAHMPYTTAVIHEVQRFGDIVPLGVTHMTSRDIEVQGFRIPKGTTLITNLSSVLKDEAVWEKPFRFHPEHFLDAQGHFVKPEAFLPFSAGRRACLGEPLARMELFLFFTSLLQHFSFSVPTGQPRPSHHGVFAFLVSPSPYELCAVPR
Description: as §1, §2, §3

CYP2C8 = target: T3, CYP2C8 (Homo sapiens, UniProt P10632); test: Direct inhibition of CYP2C8, human liver microsome; format: in vitro ADME; details: probe paclitaxel, read-out: IC50 2C8 (Paclitaxel)
T3 construct: from tissue; host or cells: human liver microsomes
T3 sequence (P10632 1-490): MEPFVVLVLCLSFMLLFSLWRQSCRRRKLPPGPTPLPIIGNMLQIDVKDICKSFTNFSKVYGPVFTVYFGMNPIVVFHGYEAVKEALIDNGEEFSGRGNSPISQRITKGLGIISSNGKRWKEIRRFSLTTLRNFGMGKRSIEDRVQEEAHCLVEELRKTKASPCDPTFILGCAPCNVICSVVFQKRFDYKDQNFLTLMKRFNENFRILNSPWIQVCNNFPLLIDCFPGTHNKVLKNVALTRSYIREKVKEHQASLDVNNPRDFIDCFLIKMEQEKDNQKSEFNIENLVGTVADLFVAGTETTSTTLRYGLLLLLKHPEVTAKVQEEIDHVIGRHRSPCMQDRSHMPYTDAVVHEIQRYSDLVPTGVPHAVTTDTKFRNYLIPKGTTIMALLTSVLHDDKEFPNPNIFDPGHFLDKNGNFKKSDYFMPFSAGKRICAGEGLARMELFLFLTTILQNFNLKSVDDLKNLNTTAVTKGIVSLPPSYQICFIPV
Description: Research on Direct Inhibition of CYP2B6 and CYP2C8
100 μL human liver microsome (with final concentration of 0.2 mg/mL) was used for direct inhibition under warm incubation. The positive control system contained NADPH (with final concentration of 1 mmol/L), a mixture of positive inhibitors (ketoconazole 0.05 to 50 μmol/L, montelukast sodium 0.001 to 1 μmol/L), and a substrate mixture (with final concentration of amfepramone 50 μmol/L and paclitaxel 5 μmol/L), and the reaction was terminated after incubation for 20 min. The positive inhibitor was replaced with 0.1 to 100 μmol/L test compound in the test compound group. The reaction was terminated with acetonitrile containing […] internal standard tinidazole (1:3), vortexed for 10 min, centrifuged at 6000×g for 10 min, and 50 μL supernatant was taken and put into a 96-well plate for injection.
as §3

[3] = system: human breast cancer BT-474 xenograft; details: oral, 20 days

Row | Compound | tumor volume inhibition rate (GI %) ([1]; 50MPK) | IC50 (CYP2C19) | bioavailability [2] | IC50 (CYP2D6) | IC50 (CYP2C8) | tumor volume inhibition rate (GI %) ([3]; 100MPK) | tumor volume inhibition rate (GI %) ([1]; 100MPK) | tumor volume inhibition rate (GI %) ([3]; 25MPK) | tumor volume inhibition rate (GI %) ([3]; 50MPK) | tolerability [3]
1 | Cc1cc(Nc2ncnc3ccc(NC4=NC(C)(C)CO4)cc23)ccc1Oc1ccn2ncnc2c1 [ARRY-380, reference compound] | 59.5% | 35 µM | 9.5% | 3 µM | 3 µM | 108.8% |  |  |  | 
2 | Cc1cc(Nc2ncnc3ccc(NC4=NC(C)(C)CO4)cc23)ccc1Oc1cc2nncn2cn1 [Embodiment 4, N^4-(4-([1,2,4]triazolo[4,3-c]pyrimidin-7-yloxy)-3-methylphenyl)-N^6-(4,4-dimethyl-4,5-dihydrooxazol-2-yl)quinazoline-4,6-diamine] | 84.3% | 53 µM | 15.4% | 12 µM | 15 µM | 126.4% | 117.9% | 70.3% | 103.2% | good tolerability
